The values that follow come from patent US20060166934A1, “Composition comprising phytosphingosine derivatives for apoptosis induction” (Tae-Yoon Kim, priority 2002, published 2006).

As usually defined, the IC50 is the concentration that inhibits the measured activity by half.

The test system of data set [1] is A431 cells, human skin cancer cell line. The experiment in a line: MTT assay, cytotoxicity in human skin cancer cell line. The format is cell-based. The procedure: (§1) Firstly, the cytotoxicity is measured by the MTT assay. Phytosphingosine (PS), phytosphingosine-HCl (PS-HCl), C6-phytosphingosine (C6-PS), CLA-phytosphingosine (CLA-PS), tetraacetyl phytosphingosine (TAPS), and N-acetyl phytosphingosine (NAPS) are dissolved into DMSO to have the final concentration of 1-100 μM.
(§2) In order to study the effects of the compositions of the present invention on the cytotoxicity in the human keratinocyte cell line HaCaT cells, the cell viability is analyzed by the MTT (3-[4,5-dimethylthiazol-2-yl]-2,5-diphenyltetrazolium bromide) assay. HaCaT cells are supplied by Professor N. Fuseng of German Cancer Research in Germany. HaCaT cells are seeded in a density of 1×10^6 cells in a […] and cultured in DMEM (Dulbecco's Modified Eagle Medium) containing 10% fetal bovine serum (FBS, GIBCO), 100 units/ml penicillin, and 100 μg/ml streptomycin for 48 hours. They are treated with trypsin and 1-2×10^4 cells per well are seeded again in a 96-well plate by using a serum-free culture medium, about 3 hours after which they are cultured by treatment with phytosphingosine derivatives. After they are cultured for 24 hours, the MTT reagent is added at a concentration of 2 mg/ml, cultured for 4 hours, suspended in DMSO after removing the culture medium completely in order to measure O.D. at 540 nm. C2-ceramide is used for comparison.
In order to study the effects of the compositions of the present invention on the cytotoxicity in A431 cells, human skin cancer cell line, the MTT assay is used. The method of cell culture and MTT assay are the same as those in the above method. C2-ceramide is used for comparison.
For orientation: Tetrazolium dyes change colour on reduction, which living cells bring about.

The test system of data set [2] is human keratinocyte cell line HaCaT cells. The experiment in a line: MTT assay, cytotoxicity in human keratinocyte cell line. The data set is classed as cell-based. The procedure: as §1, §2
The subject of a further data set is HaCaT cells. The experiment in a line: MTT assay, combined treatment with UVB irradiation. Particulars: HaCaT. The format is cell-based, human. Further details: Cell viability: unit not given here. The method, then: In order to study the synergistic effect in the cytotoxicity by the cotreatment with administration of the compositions of the present invention and with UVB irradiation, the cell viability is analyzed by MTT assay method in HaCaT cells. On a 100-mm dish, 1×10^6 HaCaT cells are seeded and cultured in DMEM containing 10% fetal bovine serum, 100 units/ml penicillin, and 100 μg/ml streptomycin for 48 hours. They are treated with trypsin, and 1-2×10^4 cells per well are seeded on a 96-well plate again by using a serum-free medium, which is removed after about 3 hours. HaCaT cells are washed with PBS three times, and 3.5 ml of PBS per plate is added. It is then irradiated with 200 J/m^2 of UVB. After irradiation, the medium is replaced with a DMEM medium. Then it is treated with the phytosphingosine derivatives of the present invention, and cultured for 24 hours. After 2 mg/ml of the MTT reagent is added, it is cultured for 4 hours. The medium is removed completely, the cells are suspended in DMSO, and O.D. is measured at 540 nm.

Data set [3] deals with HaCaT cells human keratinocyte cell line. The experiment in a line: MTT assay, combined administration with Vit D3 or calcipotriol. The data set is classed as cell-based. Particulars: 24 hours; for Cell viability: HaCaT, in %. The procedure: In order to study the synergistic effect in the cytotoxicity when the compositions of the present invention are administered in combination with Vit D3 or calcipotriol, the cell viability is analyzed by MTT assay method in HaCaT cells human keratinocyte cell line.
To HaCaT cells, 1 μM of Vit D3 or calcipotriol, or 10 μM each of NAPS and TAPS, is administered singly or in combination with each other, and they are cultured for 24 hours. And the effects of these drugs on the cytotoxicity according to the single or combined administration are observed by MTT assay. C2-ceramide is used for comparison.

Data set [4] concerns peripheral blood mononuclear cells (PBMC). As to the kind of experiment: MTT assay, cytotoxicity in peripheral blood mononuclear cells. Particulars: up to 100 μM, 24 hours, FIG. 3. The data set is classed as cell-based, human. The procedure: (§3) The effects of the composition of the present invention on the cytotoxicity in immune cells (T cells, B cells, macrophages, monocytes, etc.) obtained from human blood were examined. The blood was obtained from healthy volunteers and PBMC from the blood by mechanical aggregation method. And mononuclear cells containing T cells, B cells, macrophages and monocytes were isolated from single cells by density gradient centrifugation method using Ficoll Hypaque. Briefly, single cells were treated with PBS and overlayed on Ficoll Hypaque and centrifuged at 1500 rpm for 30 min. After centrifugation, the cells around the boundary of the Ficoll-Hapaque were collected and washed three times with PBS. Each 2×10^5 PBMC obtained from different volunteers was mixed with each other and cultured for 5 days on the 96-well plate. And RPMI with 10% of serum was used as a medium. The isolated cells were cultured for 24 hours in the presence of 1, 10, 50 and 100 μM of NAPS, TAPS, and PS to examine the effect of cytotoxicity, i.e. the degree of proliferation of the cells. C2-ceramide was used as control.

In data set [5] the test system is immune cells (T cells, B cells, macrophages, monocytes) from spleen of mice. The experiment in a line: MTT assay, cytotoxicity in immune cells separated from spleen of mice. The format is cell-based. The method, then: as §3, with “effect” for “effects”, “etc.) was examined. The spleen was removed from normal mice (BDF) and single cells were” for “etc.)”, “from” for “from human blood were examined. The blood was obtained from healthy volunteers and PBMC from”, “spleen” for “blood”, “PBS.” for “PBS. Each 2×10^5 PBMC obtained from different volunteers was mixed with each other and cultured for 5 days on the 96-well plate. And RPMI with 10% of serum was used as a medium.”, “control. The medium used in this experiment was RPMI 1640 suplemented with 10% of FBS and 100 μg/ml of penicillin and streptomycin.” for “control.”

Data set [6] deals with Th1 cells activation against allogenic cells (PBMC). As to the kind of experiment: Reactions among allogenic cells, Th1 cells activation, MTT assay. Particulars: 50 μM, FIG. 5. The format is cell-based, human. The source says: Whether the composition of the present invention has a suppressive effect on the Th1 cells activation by allogenic cells in immune reation was examined.
PBMC obtained from different volunteers as described in the above 5 were used for responder cells and stimulator cells respectively. PBMC for stimulator cells were used after X-ray irradiation (3000 rad) to inhibit the proliferation of stimulator cells.
(§4) Each 2×10^5 responder cells and stimulator cells were mixed with each other and cultured for 5 days on the 96-well plate. And RPMI with 10% of serum was used as a medium.
(§5) The above cells were cultured for 24 hours in the presence of 1, 10, 50 and 100 μM of NAPS, TAPS, and PS to examine the proliferation of the cells.
(§6) C2-ceramide was used as control.

A further data set concerns caspase-3. The experiment in a line: Immunoblot analysis of active caspase-3. The format is cell-based, human. Particulars: HaCaT, FIG. 11. The procedure:
In the confirmation of apoptosis-related proteins, the immunoblot analysis is performed in order to look into the effects of the compositions of the present invention on the expression of caspase-3, p53, and Chk1 proteins related to the induction of apoptosis.
HaCaT cells are cultured on a 100-mm dish and collected at the indicative time. The proteins are extracted by adding 500 μl of RIPA lysis buffer (1% Nonidet P-40, 1% sodium deoxycholate, 0.1% SDS, […], 0.01 M sodium phosphate, pH 7.2, 2 mM EDTA, 50 mM sodium fluoride and 0.2 mM sodium vanadate), and the concentration is measured by using the Bradford method. 1
Extracted proteins is electrophoresed on 12% polyacrylamide gel, and they are transferred to the nitrocellulose membrane. The membrane blocked with 5% non-fat milk is reacted with the primary antibodies (caspase-3, p53, and Chk1), washed, and reacted with the secondary HRP-conjugated antibody. The intensity of proteins is analyzed by using the ECL kit.
In general terms: Immunoblotting shows a protein as a band on a membrane.

The subject of another data set is Th1 cells activation. The experiment in a line: Mixed leukocyte reaction (MLR), Th1 cells activation by TNBSO3, MTT assay. The format is cell-based, mice. Particulars: MLR with TNBSO3-conjugated stimulator cells, FIG. 4. The procedure:
Whether the composition of the present invention has a suppressive effect on the Th1 cells activation which isolate […], IL-12, etc. by reacting with TNBSO3 […] was examined.
The mononuclear cells obtained from spleen of mice as described the above 4 were used for responder cells, and TNBSO3-conjugated cells were used for stimulator cells. The stimulator cells were obtained as follows:
The mononuclear cells were adjusted to be 2×10^7 cells/ml in PBS and the same volume of 20 mM TNBSO3 was added and incubated at 37° C. for 10 min in the dark state. After incubation, the cells wrer washed three times with PBS.
as §4, §5, §6

The subject of data set [7] is human umbilical vein endothelial cells (HUVEC). As to the kind of experiment: MTT assay, cytotoxicity in HUVEC. The data set is classed as cell-based. The method, then: as §1, §2
The MTT assay is used for the above purpose. Primary human umbilical vein endothelial cells are cultured from the human umbilical vein. The method of cell culture and the MTT assay are the same as those in the above. C2-ceramide is used for comparison.

On to `CCCCCCCCCCCCCCC(O)C(O)C(CO)NC(=O)CCCCC` (centres unmarked) [C6-PS, C6-phytosphingosine], for which the Cell viability in [1] (3 µM) was 106 ± 9.7; in [1] (10 µM), 61 ± 8.1; in data set [1] (30 µM), 57 ± 10.4; in [1] (50 µM), 44 ± 9.6; in data set [2] (1 µM), 84 ± 16.8; in data set [2] (3 µM) it was 96 ± 7.2. Moreover, the Cell viability in [2] (10 µM) turned out to be 74 ± 10.1; in [2] (30 µM), 87 ± 1.3.
Regarding `CCCCCCCCCCCCCC[C@@H](O)[C@@H](O)[C@@H](N)CO.Cl` [PS-HCl, phytosphingosine-HCl], the Cell viability in data set [1] (human, 24 h, 3 µM) stood at 105 ± 5.8; in data set [1] (human, 24 h, 10 µM), 109 ± 8.6; in data set [1] (human, 24 h, 30 μM), 7 ± 1.6; in data set [1] (human, 24 h, 50 μM), 2 ± 0.2; in data set [2] (human, 24 h, 1 µM) it was 100 ± 4.1; in data set [2] (human, 24 h, 3 µM) it was 101 ± 2.2. The Cell viability in [2] (human, 24 h, 10 µM) was determined as 79 ± 7.0; in [2] (human, 24 h, 30 μM), 36 ± 6.8; in the data set on HaCaT cells (1 μM + UVB 200 J/m^2, 24 hours), 39 ± 4.5; in the data set with HaCaT cells (1 μM, no UVB, 24 hours), 83 ± 7.9; with HaCaT cells (3 μM + UVB 200 J/m^2, 24 hours) it was 24 ± 2.0; in the data set with HaCaT cells (3 μM, no UVB, 24 hours), 78 ± 10.0. The Cell viability in the data set on HaCaT cells (5 μM + UVB 200 J/m^2, 24 hours) is recorded as 25 ± 1.9; with HaCaT cells (5 μM, no UVB, 24 hours), 78 ± 6.7; in the data set on HaCaT cells (10 μM + UVB 200 J/m^2, 24 hours), 2 ± 0.5; in the data set with HaCaT cells (10 μM, no UVB, 24 hours), 75 ± 8.2. Further, in [1] (human, 24 h, 50 μM), the cytotoxicity is 95-98%.
Turning to CLA-phytosphingosine [CLA-PS], the Cell viability is 91 ± 11.0 in data set [1] (3 µM); 98 ± 12.9 in data set [1] (10 µM); 60 ± 6.2 in data set [1] (30 µM); 65 ± 5.5 in data set [1] (50 µM); 66 ± 7.8 in data set [2] (1 µM); 64 ± 9.9 in data set [2] (3 µM). The results for the Cell viability in data set [2] (10 µM) and in data set [2] (30 µM) were 58 ± 0.4 and 55 ± 9.1, respectively.
Turning to `C=C1CC[C@H](O)C/C1=C/C=C1\CCC[C@]2(C)[C@@H]([C@H](C)CCCC(C)C)CC[C@@H]12` [Vit D3, vitamin D3, reference compound], in data set [3] (1 μM singly), the toxicity was 19% and the Cell viability is on record as 81 ± 3.
Turning to `CCCCCCCCCCCCC/C=C/[C@@H](O)[C@H](CO)NC(C)=O` [C2-ceramide, reference compound], the “cytotoxicity to PBMC” value in data set [4] is “did not show the cytotoxicity”. For the same molecule, in [5], the IC50 is ~75 µM. In addition, the “suppressive effect on Th1 cells activation against allogenic cells” value in data set [6] is “almost no suppressive effect”. In addition, the Cell viability in data set [1] (3 µM) is 113 ± 19.8; in data set [1] (10 µM) it was 97 ± 14.7; in data set [1] (30 µM), 82 ± 1.4; in [1] (50 µM) it was 74 ± 12.8; in data set [3] (10 μM combined with Vit D3 (1 μM)), 71 ± 9; in [3] (10 μM combined with calcipotriol (1 μM)), 70 ± 4. Moreover, the Cell viability is 78 ± 2 in [3] (10 μM singly); 97 ± 3.8 in data set [2] (1 µM); 98 ± 2.5 in data set [2] (3 µM); 75 ± 1.3 in data set [2] (10 µM); 33 ± 0.6 in [2] (30 µM); 90 ± 11.6 in data set [7] (3.5 µM). Also, the Cell viability came to 60 ± 7.7 in data set [7] (7 µM), 61 ± 8.4 in data set [7] (15 µM) and 34 ± 2.3 in data set [7] (30 µM). Also, the “time to maximum active caspase-3” value with caspase-3 (after treatment) is ≤ 3 h. Further, the “maximum increase of active caspase-3 (expression of induction)” value with caspase-3 (immunoblot) was 2.5 folds. For the same molecule, the “concentration showing a suppressive effect on Th1 cells activation” value with Th1 cells activation was found to be 50 µM.
